# Laboratory results reported in US12496304B2, “Selective glucocorticoid receptor modifiers for treating impaired skin wound healing” (AKRIBES BIOMEDICAL GMBH, priority 2019, dated 2025).
# What was measured:
# IL-1β = IL-1β secretion into the supernatant in the fibroblast proliferation assay (ELISA); type: cell-based, human; details: WE-1 (FIG. 2B, 9B), graded concentrations
# Experimental: Primary human dermal fibroblasts (HDF) were purchased from CELLnTEC, Bern. They were routinely grown in Dulbecco's modified Eagle's medium (DMEM) containing 10% FCS, 2 mM glutamine, and 100 U/ml penicillin/100 μg/ml streptomycin. Media, antibiotics, and glutamine were bought from Lonza. The cells were used at passage 5-15. Cells were trypsinized and seeded at 2500 cells/well in 30 μl into the inner wells of 384-well plates in the absence or presence of graded compound concentrations with or without different dilutions of sterile-filtered WE in medium. For control samples, 30 μl medium was added instead of specific stimuli. The outer wells were loaded with sterile water. The cells were incubated for 72 hours at 37° C.
# At the end of the incubation period, supernatants were removed for the determination of IL-1β, and the cells were fixed with 4% paraformaldehyde (Morphisto) for 15 minutes at room temperature and washed 3 times with PBS. A control plate was fixed after the overnight adherence of the cells (day 1) to determine the starting cell number.
# IL-1β levels were determined with a commercial ELISA kit. The amount of IL-1β contained in the wound exudate added to the cells was subtracted from the total IL-B in the supernatants in order to determine the cytokine secreted by the cells.
# Collagen 1a = assay: mRNA expression in fibroblast cultures (qRT-PCR): collagen 1; type: cell-based, human
# Experimental: (§1) Cells were seeded into 24-well plates and incubated with compounds in the presence or absence of wound exudates for 72 hours. Total RNA was isolated using the RNeasy Mini Kit (QIAGEN #74106) according to the manufacturer's protocol. RNA integrity and concentration for each sample was confirmed and measured with the Qubit fluorometer. Each RNA sample was then diluted to 2 ng/μl in nuclease-free doubly distilled water.
# (§2) 20 ng of total RNA were reverse-transcribed into cDNA and immediately subjected to PCR amplification using the SuperScript Ill Platinum One-Step Quantitative RT-PCR System with ROX (Invitrogen #11745). qRT-PCR amplifications were performed in 20 μl reactions containing 9 μl 2× Reaction Mix with ROX, 0.4 μl SuperScript III RT/Platinum Taq Mix and 1 μl primer (final: 900 nM, Taqman Gene Expression Assay, Applied Biosystems)
# (§3) The program included 30 minutes of reverse transcription at 48° C., an initial denaturation for 5 minutes at 95° C. followed by 40 cycles of denaturation at 95° C. for 15 seconds and annealing at 60° C. for 60 seconds. Reactions were set up in 96-well format PCR plates (Peqlab #732-2879) and carried out in a Mx3005P Real-Time PCR Detection System (Stratagene).
# (§4) TaqMan Gene Expression Assays (Applied Biosystems) were used, which include preoptimized probe and primer sets specific for the genes being validated. The sequences and ID numbers are listed below:
# (§5) The house keeping gene elongation factor 1a (EF1a) was used as a reference gene. Normalized expression was calculated using the comparative Ct (or ΔCt) method, and fold changes were derived from the 2-ΔΔCt values for each gene. Graphs were prepared using relative Ct values that were calculated by subtracting the EF1a Ct values from the corresponding Ct values for the gene being measured.
# Collagen 3a = assay: mRNA expression in fibroblast cultures (qRT-PCR): collagen 3; type: cell-based, human
# Experimental: as §1, §2, §3, §4, §5
# [1] = system: human dermal fibroblast (HDF) cells; assay: Fibroblast-derived matrix formation (FDM) assay, 3D fibroblast culture; type: cell-based
# Experimental: Human dermal fibroblast (HDF) cells were seeded at 1250 cells/well on day −3 into 384-well tissue culture plates, which had been pre-coated for 1 hour at 37° C. with 0.2% gelatin solution (Sigma). When the cells reached confluence (=day 0), a matrix promoting supplement (vitamin C: 2-phospho-L-ascorbic acid trisodium salt, 100 μg/ml; Sigma) was added together with test samples containing TGF-β1 or graded concentrations of compounds −/+WE as described for the HDF proliferation assay. After 4 days, medium was replaced by fresh vitamin C—and stimulus—as well as compound-containing medium, maintaining the conditions initiated on day 0. TGF-β1 was included as a positive control to promote FDM formation. After a total incubation time of 7 to 8 days, FDM production was measured in fixed cultures via SRB staining and evaluated as described above. In some cases, the experiment was stopped and evaluated already on day 4.
# IL-8 [2] = assay: Primary human monocyte cytokine secretion assay (spontaneous IL-8); type: cell-based; details: 16 hours (FIG. 16B)
# Experimental: Primary human monocytes were prepared from peripheral blood mononuclear cells (PBMC). PBMC were isolated from buffy coats obtained from the Red Cross, Vienna, using LymphoPrep (Technoclone). 30 ml of buffy concentrate was diluted 1:2 with PBS, gently underlayered with 15 ml Lymphoprep in a 50 ml Falcon tube and centrifuged for 25 minutes at 1800 rpm at 21° C. The interphase was carefully transferred to a new Falcon tube and filled up to 50 ml with ice cold PBS. After another centrifugation step (10 minutes, 1200 rpm, 4° C.), the cell pellet was washed 3 times with PBS, resuspended in RPMI medium containing 20% FCS and 10% DMSO and frozen in liquid nitrogen. Monocytes were generated from frozen aliquots using positive selection with the CD14 Beads-Kit (Miltenyi) on an autoMACS-Sorter (Miltenyi) according to the manufacturer's instructions.
# Cells were seeded at 8×10^5/ml in 50 μl/well of a 384-well plate and combined cells with graded concentrations of test compounds. After 16 hours, the supernatants were transferred to fresh plates and frozen at −20° C. for IL-8 analysis, using a commercial ELISA kit.
# IL-8 [3] = assay: U937 cell stimulation assay (LPS-induced IL-8); type: cell-based, human; details: LPS 100 ng/ml, 16 hours (FIG. 16A)
# Experimental: The human monocytic cell line U937 (ATCC CRL 1593) was routinely grown in RPMI_1640 supplemented by 10% FCS and 2 mM glutamine, and 100 U/ml penicillin/100 μg/ml streptomycin. Cells were seeded at 4×10^5/ml in 50 μl/well of a 384-well plate and combined cells with graded concentrations of test compounds and LPS at 100 ng/ml. After 16 hours, the supernatants were transferred to fresh plates and frozen at −20° C. for IL-8 analysis, using a commercial ELISA kit.
# [4] = medium in the absence of WE, 72-hour incubation
structure (smiles),measurement,setting,value
CCS(=O)(=O)c1cc2cc(C[C@@](O)(CC(C)(C)c3ccc(F)cc3C(N)=O)C(F)(F)F)[nH]c2cn1 [BI-3047],IL-1β secretion into the supernatant,IL-1β,much less effect on IL-1β secretion
same,collagen 1 mRNA expression,Collagen 1a; [4],no significant effect on collagen 1 mRNA in the presence of medium
same,collagen 3 mRNA expression,Collagen 3a; [4],reduction of collagen 3 mRNA with medium
same,formation of fibroblast-derived matrix (3D),[1]; WE from patient #92 (FIG. 12),did not induce matrix formation
same,spontaneous IL-8 secretion in human monocytes,IL-8 [2],even induced IL-8 secretion at the highest concentrations
same,LPS-induced IL-8 secretion in U937 cells,IL-8 [3],even induced IL-8 secretion at the highest concentrations
"CCS(=O)(=O)c1cc2cc(C[C@](O)(CC(C)(C)c3ccc(F)cc3C(N)=O)C(F)(F)F)[nH]c2cn1 [BI-653048, (R)-2-(4-((5-(Ethylsulfonyl)-1H-pyrrolo[2,3-c]pyridin-2-yl)methyl)-5,5,5-trifluoro-4-hydroxy-2-methylpentan-2-yl)-5-fluorobenzamide]",IL-1β secretion into the supernatant,IL-1β,inhibited IL-1β secretion at the same concentrations
same,collagen 1 mRNA expression,"Collagen 1a; WE-2, 1 μM, 72-hour incubation (FIG. 3A)",induced mRNA expression of both collagens 1 and 3 in the presence of wound exudate
same,collagen 1 mRNA expression,Collagen 1a; [4],no significant effect on collagen 1 mRNA in the presence of medium
same,collagen 3 mRNA expression,"Collagen 3a; WE-2, 1 μM, 72-hour incubation (FIG. 3B)",induced mRNA expression of both collagens 1 and 3 in the presence of wound exudate
same,collagen 3 mRNA expression,Collagen 3a; [4],reduction of collagen 3 mRNA with medium
same,formation of fibroblast-derived matrix (3D),"[1]; WE-1, graded concentrations (FIG. 4)",effective in inducing matrix formation in the presence of wound exudate
same,spontaneous IL-8 secretion in human monocytes,IL-8 [2],inhibited both LPS-induced and spontaneous IL-8 secretion
same,LPS-induced IL-8 secretion in U937 cells,IL-8 [3],inhibited both LPS-induced and spontaneous IL-8 secretion
